Measured values taken from article PMC3963473, “Structure–Activity Relationship Studies of Pyrrolone Antimalarial Agents” (Chemmedchem, 2013).
In brackets after ≈: the same amount, converted by molar mass. Read-outs that look alike come from different tables or passages of the source.

Legend:
[1] = Aqueous solubility estimated by nephelometry; assay type: physicochemical; conditions: kinetic from dmso stock
Description: III. Physicochemical Evaluation […]
Solubility Estimation: Aqueous solubility was estimated by nephelometry.
Compound in DMSO was spiked into either water, pH 6.5 phosphate buffer or 0.01N HCl
(approx. pH 2.0) with the final DMSO concentration being 1%. Samples were then
analyzed by Nephelometry to determine the solubility range as described previously.1

[2] = system: Plasmodium falciparum K1; assay: microbe, parasite or virus in culture; assay type: cell-based; conditions: for EC50: Plasmodium falciparum, K1, read-out: EC50 P. falc.; for drop / loss in activity (fold) / decrease in EC50 value relative to the unsubstituted analogue 56: P. falciparum K1; for drop / loss in activity (fold): C-ring variants, comparator not stated explicitly; for decrease in EC50 value relative to the unsubstituted analogue 56: relative to 56
Description: (§1) V. Design and Results of the in vitro & in vivo Studies.
A. Drug inhibition of in vitro cultured P. falciparum parasite:2 All in vitro assays were carried out twice independently. In vitro activity against the erythrocytic stages of P. falciparum was determined by using a 3H-hypoxanthine incorporation assay,5-6 using the […]
were dissolved in DMSO at 10 mg/mL and added to parasite cultures incubated in RPMI […]
haematocrit (0.3% parasitaemia). Serial doubling dilutions of each drug were prepared in […]
After 48 h, 50 µL of 3H-hypoxanthine (= 0.5 µCi) was added to each well of the plate. The plates were incubated for an additional 24 h under the same conditions. The plates were then harvested with a Betaplate cell harvester (Wallac, Zurich, Switzerland), and the red blood cells were transferred onto a glass fiber filter and then washed with distilled water. The dried filters were inserted into a plastic foil with 10 mL of scintillation fluid and were counted in a Betaplate™ liquid scintillation counter (Wallac, Zurich, […]

[3] = system: L6 cells; assay: In vitro cytotoxicity assay in L6 cells (Alamar Blue); assay type: cell-based; conditions: Rattus norvegicus
Description: as §1
A. Drug inhibition of in vitro cultured P. falciparum parasite:2 All in vitro assays were carried out twice independently. In vitro activity against the erythrocytic stages of P. […]
B. In vitro cytotoxicity assay:2 Assays were performed in 96-well microtiter plates, each […]
mM) and 10% fetal bovine serum, and 4 x 10^4 L-6 cells (a primary cell line derived from rat skeletal myoblasts). Serial drug dilutions of seven 3-fold dilution steps covering a range […]
After 72 h of incubation the plates were inspected […]
of Alamar Blue was then added to each well and the plates incubated for another 2 h.
Then the plates were read with a Spectramax Gemini XS microplate fluorometer (Molecular Devices Cooperation, Sunnyvale, CA, USA) using an excitation wave length of […]
Data were analysed using the microplate reader software Softmax Pro (Molecular Devices Cooperation, Sunnyvale, CA, USA).

[4] = Table 1, water, nephelometry, 1% DMSO, read-out: Solubility water
[5] = Table 1, A-ring variants, mammalian L6 cells, mean of two independent assays, read-out: EC50 L6 cells
[6] = aqueous buffer, pH 6.5 phosphate buffer, nephelometry, 1% DMSO, read-out: Solubility pH 6.5
[7] = simulated gastric fluid, pH 2.0 (0.01N HCl), nephelometry, 1% DMSO, read-out: Solubility pH 2.0
[8] = Table 2, C-ring variants, L6 cells, mean of two independent assays, read-out: EC50 L6 cells

SMILES: CCOC(=O)C1=C(C)N/C(=C/c2cc(C)n(C3CCN(Cc4ccc(F)cc4F)CC3)c2C)C1=O [Compound 27]
- solubility [1, 4]: > 125 µM
- EC50 [2]: 0.023 µM
- EC50 [3, 5]: 23 µM

SMILES: CCOC(=O)C1=C(C)N/C(=C/c2cc(C)n(C3CCN(CCc4ccc(OC)cc4)CC3)c2C)C1=O [Compound 32]
- solubility [1, 6]: 25 to 51 µM (≈ 12.3 to 25.1 µg/mL)
- solubility [1, 7]: 100 to 200 µM (≈ 49.2 to 98.3 µg/mL)
- EC50 [2]: 0.083 µM
- EC50 [3, 5]: 72 µM

SMILES: CCCn1ccc2c(c1=O)C(=O)/C(=C\c1cc(C)n(-c3ccccc3C(F)(F)F)c1C)N2 [Compound 59]
- melting point: 180 to 185 °C
- drop / loss in activity (fold) [2]: tenfold
- EC50 [2]: 0.15 µM
- EC50 [3, 8]: 34 µM

SMILES: CCOC(=O)C1=C(/C=C/N(C)C)N/C(=C/c2cc(C)n(-c3ccccc3C(F)(F)F)c2C)C1=O [Compound 55, (E)-Ethyl 5-((2,5-dimethyl-1-(2-(trifluoromethyl)phenyl)-1H-pyrrol-3-yl)methylene)-2-((E)-2-(dimethylamino)vinyl)-4-oxo-4,5-dihydro-1H-pyrrole-3-carboxylate]
- solubility ([1]; Table 2, water, read-out: Solubility water): > 125 µM
- EC50 [2]: 0.061 µM
- EC50 [3, 8]: 56 µM

SMILES: CCOC(=O)C1=C(C)N/C(=C/c2cc(C)n(C3CCN(Cc4ccc(N5CCOCC5)nc4)CC3)c2C)C1=O [Compound 52]
- melting point: > 280 °C
- EC50 [2]: 1.5 µM
- EC50 [3, 5]: 50 µM

SMILES: CCOC(=O)C1=C(C)N/C(=C/c2cc(C)n(C3CCN(Cc4ncc[nH]4)CC3)c2C)C1=O [Compound 46]
- melting point: 185 to 190 °C
- EC50 [2]: 1.2 µM
- EC50 [3, 5]: 28 µM

SMILES: CCOC(=O)C1=C(C)N/C(=C/c2cc(C)n(C3CCN(C)CC3)c2C)C1=O [Compound 19]
- melting point: 130 to 135 °C
- EC50 [2]: 1.4 µM
- EC50 [3, 5]: 7.8 µM

SMILES: CCOC(=O)C1=C(C)N/C(=C/c2cc(C)n(C3CCN(Cc4ccccc4C(F)(F)F)CC3)c2C)C1=O [Compound 29]
- solubility [1, 4]: > 125 µM
- EC50 [2]: 0.0005 µM
- EC50 (P. falciparum K1) ([2]; values in nM): sub-nanomolar
- EC50 [3, 5]: 1.7 µM

SMILES: CCOC(=O)C1=C(C)N/C(=C/c2cc(C)n(C3CCN(Cc4cc(C)on4)CC3)c2C)C1=O [Compound 47]
- melting point: 185 to 188 °C
- EC50 [2]: 0.1 µM
- EC50 [3, 5]: 42 µM

SMILES: CCOC(=O)C1=C(C)N/C(=C/c2cc(C)n(C3CCN(C(C)c4ccc(C(F)(F)F)cc4)CC3)c2C)C1=O (stereo not shown) [Compound 35]
- EC50 [2]: 0.007 µM
- EC50 [3, 5]: 4.26 µM

SMILES: CCOC(=O)C1=C(C)N/C(=C/c2cc(C)n(C3CCN(Cc4ccn(C)n4)CC3)c2C)C1=O [Compound 45]
- melting point: 180 to 184 °C
- EC50 [2]: 0.15 µM
- EC50 [3, 5]: 36 µM

SMILES: Cc1cc(/C=C2/Nc3ccn(CCN(C)C)c(=O)c3C2=O)c(C)n1-c1ccccc1C(F)(F)F [Compound 61]
- melting point: 125 to 128 °C
- decrease in EC50 value relative to the unsubstituted analogue 56 [2]: fivefold
- EC50 [2]: 0.25 µM
- EC50 [3, 8]: 35 µM

SMILES: CCOC(=O)C1=C(C)N/C(=C/c2cc(C)n(C3CCN(CCN4CCCCC4)CC3)c2C)C1=O [Compound 38]
- melting point: 122 to 125 °C
- EC50 [2]: 2.4 µM
- EC50 [3, 5]: 97 µM

SMILES: CCOC(=O)C1=C(C)N/C(=C/c2cc(C)n(C3CCN(CCc4ccccc4)CC3)c2C)C1=O [Compound 31]
- EC50 [2]: 0.32 µM
- EC50 [3, 5]: 107 µM

SMILES: CCOC(=O)C1=C(C)N/C(=C/c2cc(C)n(C3CCN(CCc4ccc(C(F)(F)F)cc4)CC3)c2C)C1=O [Compound 33]
- EC50 [2]: 0.13 µM
- EC50 [3, 5]: 19 µM

SMILES: CCOC(=O)C1=C(C)N/C(=C/c2cc(C)n(C3CCN(Cc4ccc(C(F)(F)F)cc4)CC3)c2C)C1=O [Compound 28]
- solubility [1, 6]: 6 to 12 µM (≈ 3.09 to 6.19 µg/mL)
- solubility [1, 4]: > 125 µM
- solubility [1, 7]: 48 to 97 µM (≈ 24.7 to 50 µg/mL)
- EC50 [2]: 0.002 µM
- EC50 [3, 5]: 5 µM

SMILES: COc1cc([C@@H]2c3cc4c(cc3[C@H](O)[C@H]3COC(=O)[C@H]23)OCO4)cc(OC)c1OC [podophyllotoxin, reference compound]
- EC50 ([3]; L6, read-out: EC50 L6 cells): 0.009 to 0.022 µM

SMILES: CCOC(=O)C1=C(C)N/C(=C/c2cc(C)n(C3CCN(CC4CC4)CC3)c2C)C1=O [Compound 39]
- melting point: 142 to 146 °C
- EC50 [2]: 3.5 µM
- EC50 [3, 5]: 14 µM

SMILES: CCOC(=O)C1=C(C)N/C(=C/c2cc(C)n(C3CCN(Cc4ccc(N5CCOCC5)cc4)CC3)c2C)C1=O [Compound 54]
- melting point: > 280 °C
- EC50 [2]: 2.6 µM
- EC50 [3, 5]: 53 µM

SMILES: CCOC(=O)C1=C(C)N/C(=C/c2cc(C)n(C3CCN(Cc4nccn4C)CC3)c2C)C1=O [Compound 49]
- melting point: 186 to 189 °C
- EC50 [2]: 1 µM
- EC50 [3, 5]: 16 µM

SMILES: CCOC(=O)C1=C(C)N/C(=C/c2cc(C)n(C3CCNCC3)c2C)C1=O [Compound 18]
- melting point: > 250 °C
- EC50 [2]: 12 µM
- EC50 [3, 5]: > 250 µM

SMILES: CCOC(=O)C1=C(C)N/C(=C/c2cc(C)n(C3CCN(CCc4ccc(F)cc4)CC3)c2C)C1=O [Compound 34]
- solubility [1, 6]: 13 to 26 µM (≈ 6.23 to 12.5 µg/mL)
- solubility [1, 7]: 52 to 100 µM (≈ 24.9 to 48 µg/mL)
- EC50 [2]: 0.096 µM
- EC50 [3, 5]: 22 µM

SMILES: CCOC(=O)C1=C(C)N/C(=C/c2cc(C)n(C3CCN(CCC(C)C)CC3)c2C)C1=O [Compound 21]
- melting point: 158 to 162 °C
- EC50 [2]: 0.19 µM
- EC50 [3, 5]: 22 µM

SMILES: Cc1cc(/C=C2/Nc3ccn(Cc4ccccc4)c(=O)c3C2=O)c(C)n1-c1ccccc1C(F)(F)F [Compound 62, (E)-5-Benzyl-2-((2,5-dimethyl-1-(2-(trifluoromethyl)phenyl)-1H-pyrrol-3-yl)methylene)-1H-pyrrolo[3,2-c]pyridine-3,4(2H, 5H)dione]
- melting point: 195 to 200 °C
- drop / loss in activity (fold) [2]: fivefold
- EC50 [2]: 0.23 µM
- EC50 [3, 8]: 43 µM

SMILES: CCOC(=O)C1=C(C)N/C(=C/c2cc(C)n(C3CCN(Cc4cnc(N5CCOCC5)nc4)CC3)c2C)C1=O [Compound 53]
- melting point: 194 to 199 °C
- EC50 [2]: 0.075 µM
- EC50 [3, 5]: 28 µM

SMILES: CCOC(=O)C1=C(C)N/C(=C/c2cc(C)n(C3CCN(Cc4ccc(F)cc4)CC3)c2C)C1=O [Compound 26]
- solubility [1, 4]: > 125 µM
- EC50 [2]: 0.024 µM
- EC50 [3, 5]: 51 µM

SMILES: CCOC(=O)C1=C(C)N/C(=C/c2cc(C)n(C3CCN(CC4CCOCC4)CC3)c2C)C1=O [Compound 41]
- melting point: 180 to 183 °C
- EC50 [2]: 0.11 µM
- EC50 [3, 5]: 43 µM

SMILES: CCOC(=O)C1=C(C)N/C(=C/c2cc(C)n(C3CCN(CC(C)(C)C)CC3)c2C)C1=O [Compound 23]
- melting point: 139 to 142 °C
- EC50 [2]: 0.058 µM
- EC50 [3, 5]: 88 µM

SMILES: CCOC(=O)C1=C(C)N/C(=C/c2cc(C)n(C3CCN(CC4CCN(C)CC4)CC3)c2C)C1=O [Compound 42]
- melting point: 230 to 235 °C
- EC50 [2]: 1.4 µM
- EC50 [3, 5]: 81 µM

SMILES: CCCN1CCC(n2c(C)cc(/C=C3/NC(C)=C(C(=O)OCC)C3=O)c2C)CC1 [Compound 22]
- melting point: 145 to 148 °C
- EC50 [2]: 1.1 µM
- EC50 [3, 5]: 6.6 µM

SMILES: CCOC(=O)C1=C(C)N/C(=C/c2cc(C)n(C3CCN(CCN4CCOCC4)CC3)c2C)C1=O [Compound 37]
- melting point: 115 to 118 °C
- EC50 [2]: 5.3 µM
- EC50 [3, 5]: 89 µM

SMILES: CCOC(=O)C1=C(C)N/C(=C/c2cc(C)n(C3CCN(Cc4cccn4C)CC3)c2C)C1=O [Compound 50]
- melting point: 190 to 194 °C
- EC50 [2]: 0.012 µM
- EC50 [3, 5]: 3 µM

SMILES: Cc1cc(/C=C2/Nc3ccn(CCN4CCOCC4)c(=O)c3C2=O)c(C)n1-c1ccccc1C(F)(F)F [Compound 60]
- melting point: 180 to 185 °C
- decrease in EC50 value relative to the unsubstituted analogue 56 [2]: fivefold
- EC50 [2]: 0.23 µM
- EC50 [3, 8]: 65 µM
